According to publication PMC11638965, “Leveraging Dual-Ligase Recruitment to Enhance Protein Degradation via a Heterotrivalent Proteolysis Targeting Chimera” (Journal of the American Chemical Society, 2024):

Legend:
Experiment in all cases: Western blot dose-response degradation in homozygous HiBiT-BromoTag-BRD4 HEK293 cells
CRBN = CRBN (Homo sapiens, UniProt Q96SW2); type: cell-based; design: Western blot data for BET, CRBN and VHL protein levels; endogenous in cells; host or cells: HEK293 (ATCC)
Protocol: (§1) Cell Culture HEK293 cells were obtained from ATCC. HEK293 was cultured in DMEM supplemented with 10% (v/v) fetal bovine serum (FBS), 1% […] and 1% (v/v) penicillin/streptomycin (pen/strep) at 37 °C, 5% CO2, and 95% humidity.
(§2) To perform the single gRNA Cas9 CRISPR KI of BromoTag into BRD4 in HEK293. HEK293 cells were plated at a density of 5 × 10^5 cells into individual wells of a six-well plate in 1 mL of DMEM and left overnight to adhere to the plate. The cells were subsequently transfected the following day using GeneJuice lipofectamine reagent simultaneously with a custom donor vector pMK-RQ containing 500bp BRD4 homology arms on either side of an eGFP-IRES-HiBiT-BromoTag and two individual pBABED vector harboring U6-sgRNA and puromycin expression cassettes containing two BRD4 targeting gRNA sequences: […] and […]. The construction of these plasmids was performed by Thomas Macartney of the MRC-PPU CRISPR services. The following day cells were washed with PBS before fresh DMEM media was applied cells were left to recover in DMEM for a further 4 days. Cells were subsequently FACS sorted for GFP expression and expanded from single cells. HEK293 clones were validated for eGFP-IRES-HiBIT-BromoTag-BRD4 integration via WB, junction PCR and sequencing.
Dose–response degradation assay 97 of was performed on the genotype verified eGFP-IRES-HiBIT-BromoTag-BRD4 homozygous HEK293 cell lines. The cells were plated at a density of 5 × 10^5 cells per well of a six well plate a day prior to initiation of the experiment. 97 was dissolved into a 10 mM concentrated stock solution in DMSO from which 97 was further diluted to a working concentration range of 10 μM to 10 pM in DMEM and was subsequently added to cells. […]
Total protein quantity was determined using the BCA protein assay. Protein concentration was determined using the BCA assay. […] All Western blots were analyzed for band intensities using Image Lab (Bio-Rad). The data extracted from these blots were then plotted and analyzed using Prism (v. 10.2.2, GraphPad). […]

[1] = tested on: BromoTag-BRD4 (BRD4^Long); type: cell-based, human; conditions: for pDC50 BRD4Long: homozygous BromoTag-BRD4 HEK293 cells (Table S8)
Protocol: as §1, §2
(§3) Dose–response degradation assay 97 of was performed on the genotype verified eGFP-IRES-HiBIT-BromoTag-BRD4 homozygous HEK293 cell lines. The cells were plated at a density of 5 × 10^5 cells per well of a six well plate a day prior to initiation of the experiment. 97 was dissolved into a 10 mM concentrated stock solution in DMSO from which 97 was further diluted to a working concentration range of 10 μM to 10 pM in DMEM and was subsequently added to cells. Additional controls including, vehicle, AGB1 (1 μM) and cis-AGB1 (1 μM) were similarly added to cells alongside 97 treatments. Cells were left to incubate with compound for 4 h at 37 °C, 5% CO2, and 95% humidity. Cells were then subsequently washed twice with PBS before being harvested in RIPA buffer supplemented with protease inhibitor cocktail and Benzonase Nuclease before being store at −20 °C.
Total protein quantity was determined using the BCA protein assay. Protein concentration was determined using the BCA assay. Samples were then prepared in LDS buffer and subsequently loaded onto NuPAGE 4–12% Bis-Tris Midi gels, followed by the transfer of the proteins onto nitrocellulose membranes. The membranes were blocked for 1 h prior to incubation with the primary antibodies using 5% Milk TBST. […] All Western blots were analyzed for band intensities using Image Lab (Bio-Rad). The data extracted from these blots were then plotted and analyzed using Prism (v. 10.2.2, GraphPad). […]

BRD2 = target: T1, BRD2 (Homo sapiens, UniProt P25440); type: cell-based
T1 construct: HiBiT, is appended to the N-terminus of endogenous BRD2, BRD3, and BRD4; endogenous in cells
Protocol: as §1, §2, §3
(§4) Total protein quantity was determined using the BCA protein assay. Protein concentration was determined using the BCA assay. Samples were then prepared in LDS buffer and subsequently loaded onto NuPAGE 4–12% Bis-Tris Midi gels, followed by the transfer of the proteins onto nitrocellulose membranes. The membranes were blocked for 1 h prior to incubation with the primary antibodies using 5% Milk TBST. Membranes were incubated at 4 °C in either BRD4(Ab128874), BRD3(Ab50818) or BRD2(Ab139690) primary antibody overnight. Following overnight incubation, the membranes were incubated with complementary IRDye 800CW secondary antibodies and a hFAB Rhodamine Anti-Tubulin Primary Antibody (loading control) for 1 h and then imaged with a Bio-Rad imager. All Western blots were analyzed for band intensities using Image Lab (Bio-Rad). The data extracted from these blots were then plotted and analyzed using Prism (v. 10.2.2, GraphPad). All Western blotting figures were developed in Adobe Illustrator.

[2] = target: T2, BromoTag-BRD4 (BRD4^Short) (Homo sapiens, UniProt O60885, L387A); type: cell-based
T2 construct: homozygous endogenous HiBiT-BromoTag-BRD4 HEK293 cell line; endogenous in cells; host or cells: HEK293, homozygous CRISPR knock-in eGFP-IRES-HiBiT-BromoTag-BRD4
Protocol: as §1, §2, §3, §4

BRD3 = target: T3, BRD3 (Homo sapiens, UniProt Q15059); type: cell-based
T3 construct: HiBiT, is appended to the N-terminus of endogenous BRD2, BRD3, and BRD4; endogenous in cells
Protocol: as §1, §2, §3, §4

[3] = HiBiT-BromoTag-BRD4 HEK293, 4 hours, n = 1 (Figure 12)
[4] = HiBiT-BromoTag-BRD4 HEK293, 4 hours (Figure 12)
[5] = homozygous BromoTag-BRD4 HEK293 cells (Table S8)

T3 sequence (Q15059 whole entry): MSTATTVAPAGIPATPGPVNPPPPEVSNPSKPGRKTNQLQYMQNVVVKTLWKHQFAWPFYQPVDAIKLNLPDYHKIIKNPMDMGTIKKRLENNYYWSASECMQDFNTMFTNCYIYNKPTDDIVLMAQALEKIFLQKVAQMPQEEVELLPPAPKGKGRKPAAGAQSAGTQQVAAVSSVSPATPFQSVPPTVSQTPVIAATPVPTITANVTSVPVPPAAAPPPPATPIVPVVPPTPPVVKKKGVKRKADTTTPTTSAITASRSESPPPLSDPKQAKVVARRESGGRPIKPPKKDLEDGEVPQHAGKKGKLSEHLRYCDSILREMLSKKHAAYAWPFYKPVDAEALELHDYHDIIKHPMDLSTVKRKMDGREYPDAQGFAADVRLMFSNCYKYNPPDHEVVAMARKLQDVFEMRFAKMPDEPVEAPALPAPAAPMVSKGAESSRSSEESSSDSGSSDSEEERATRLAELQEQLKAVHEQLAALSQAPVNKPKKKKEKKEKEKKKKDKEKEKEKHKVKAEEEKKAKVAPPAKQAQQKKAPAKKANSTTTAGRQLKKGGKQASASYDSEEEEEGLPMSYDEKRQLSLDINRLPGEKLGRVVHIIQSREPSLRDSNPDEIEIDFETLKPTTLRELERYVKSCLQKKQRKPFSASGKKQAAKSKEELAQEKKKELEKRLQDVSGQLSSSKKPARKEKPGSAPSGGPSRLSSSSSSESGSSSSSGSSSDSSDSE
Sequence of CRBN (Q96SW2 whole entry): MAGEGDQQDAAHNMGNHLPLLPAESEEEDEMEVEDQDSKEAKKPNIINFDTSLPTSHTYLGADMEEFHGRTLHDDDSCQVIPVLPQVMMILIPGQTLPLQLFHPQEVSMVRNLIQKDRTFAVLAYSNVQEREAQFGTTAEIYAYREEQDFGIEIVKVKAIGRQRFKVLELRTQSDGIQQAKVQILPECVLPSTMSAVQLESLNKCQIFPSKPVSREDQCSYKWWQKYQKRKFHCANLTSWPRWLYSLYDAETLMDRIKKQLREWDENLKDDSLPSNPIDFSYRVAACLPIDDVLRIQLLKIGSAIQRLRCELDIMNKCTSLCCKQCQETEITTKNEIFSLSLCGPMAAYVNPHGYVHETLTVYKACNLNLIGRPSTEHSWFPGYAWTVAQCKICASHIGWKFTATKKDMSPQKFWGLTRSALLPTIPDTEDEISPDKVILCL
T1 sequence (P25440 whole entry): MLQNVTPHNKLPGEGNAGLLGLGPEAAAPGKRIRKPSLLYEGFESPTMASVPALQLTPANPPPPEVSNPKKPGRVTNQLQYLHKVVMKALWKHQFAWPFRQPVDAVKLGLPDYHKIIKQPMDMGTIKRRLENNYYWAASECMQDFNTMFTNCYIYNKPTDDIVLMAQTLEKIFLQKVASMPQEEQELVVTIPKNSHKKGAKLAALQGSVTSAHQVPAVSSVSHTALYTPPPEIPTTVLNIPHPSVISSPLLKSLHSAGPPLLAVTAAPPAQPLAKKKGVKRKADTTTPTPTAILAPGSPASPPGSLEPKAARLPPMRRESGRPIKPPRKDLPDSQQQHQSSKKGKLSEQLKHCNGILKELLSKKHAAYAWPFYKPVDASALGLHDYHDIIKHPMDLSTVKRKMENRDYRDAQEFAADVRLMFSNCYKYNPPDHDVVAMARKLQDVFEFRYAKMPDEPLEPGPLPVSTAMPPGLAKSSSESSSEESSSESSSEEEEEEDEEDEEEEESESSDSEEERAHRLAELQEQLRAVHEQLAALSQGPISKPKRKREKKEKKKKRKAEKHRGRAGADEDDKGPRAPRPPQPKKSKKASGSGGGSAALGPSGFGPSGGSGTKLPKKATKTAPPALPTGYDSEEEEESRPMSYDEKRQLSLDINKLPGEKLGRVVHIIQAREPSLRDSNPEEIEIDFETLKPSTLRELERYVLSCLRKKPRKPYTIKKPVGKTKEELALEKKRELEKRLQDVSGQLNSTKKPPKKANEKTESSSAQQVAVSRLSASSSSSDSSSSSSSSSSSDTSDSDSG

| SMILES | fold more potent degradation of CRBN than 27 (CRBN; DC50 2.1 nM vs 75 nM) | DC50 (CRBN; [3]) | Dmax (CRBN; [3]) | DC50 [1, 4] | Dmax BRD4^Long [1, 4] | pDC50 BRD4Long [1] | selectivity window of BromoTag-BRD4 degradation over BRD2 (BRD2; DC50 ratio) | DC50 (BRD2; [4]) | Dmax (BRD2; [4]) | Dmax (BRD2; [5]) | DC50 [2, 4] | Dmax [2, 4] | pDC50 BRD4Short [2, 5] | selectivity window of BromoTag-BRD4 degradation over BRD3 (BRD3; DC50 ratio) | DC50 (BRD3; [4]) | Dmax (BRD3; [4]) | pDC50 BRD3 (BRD3; [5]) | Dmax % BRD4Short [2, 5] |
| --- | --- | --- | --- | --- | --- | --- | --- | --- | --- | --- | --- | --- | --- | --- | --- | --- | --- | --- |
| CC[C@@H](C(=O)OCCOCCOCCOCC(C)(COCCOCCOCCNc1cc2c(cc1F)C(=O)N(C1CCC(=O)NC1=O)C2=O)COCC(=O)N[C@H](C(=O)N1C[C@H](O)C[C@H]1C(=O)N[C@@H](C)c1ccc(-c2scnc2C)cc1)C(C)(C)C)[C@@H]1N=C(c2ccc(Cl)cc2)c2c(sc(C)c2C)-n2c(C)nnc21 (mixture of isomers) [AB3145 (97), (17S)-11-((2-(2-(2-((2-(2,6-dioxopiperidin-3-yl)-6-fluoro-1,3-dioxoisoindolin-5-yl)amino)ethoxy)ethoxy)ethoxy)methyl)-17-((2S,4R)-4-hydroxy-2-(((S)-1-(4-(4-methylthiazol-5-yl)phenyl)ethyl)carbamoyl)pyrrolidine-1-carbonyl)-11,18,18-trimethyl-15-oxo-3,6,9,13-tetraoxa-16-azanonadecyl (2R)-2-((S)-4-(4-chlorophenyl)-2,3,9-trimethyl-6H-thieno[3,2-f][1,2,4]triazolo[4,3-a][1,4]diazepin-6-yl)butanoate] | ~35 fold | 2.1 nM | 77% | 0.12 nM | 85% | 9.9 ± 0.6 | 6000 fold | 770 nM | 50% | 56% | 0.14 nM | 86% | 9.9 ± 0.1 | 250 fold | 33 nM | 79% | 7.5 ± 0.4 |  |
| CC[C@@H](C(=O)OCCOCCOCCOCC(=O)N[C@H](C(=O)N1C[C@H](O)C[C@H]1C(=O)NCc1ccc(-c2scnc2C)cc1)C(C)(C)C)[C@@H]1N=C(c2ccc(Cl)cc2)c2c(sc(C)c2C)-n2c(C)nnc21 [AGB1, reference compound] |  |  |  |  |  | 8.0 ± 0.2 |  |  |  |  |  |  | 8.6 ± 0.1 |  |  |  |  | 11% |
